Results reported in patent publication US12599672B2, “KRAS proteolysis targeting chimeras” (PAQ Therapeutics Inc., priority 2023, dated 2026).

How the values were obtained:
[1] = molecular target: T1, KRAS G12D (Homo sapiens, UniProt P01116, G12D); test: KRAS G12D HiBit assay; format: cell-based; conditions: AsPc-1-KRAS (G12D)-HiBit-KI cell, compound treatment for 24 hours; for DC50: absolute DC50
T1 construct: AsPc-1-KRAS (G12D)-HiBit-KI cell (Pharmaron); host or cells: AsPc-1-KRAS (G12D)-HiBit-KI cells (HiBiT knock-in at the endogenous KRAS locus)
In short: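 HiBiT luminescence, detected by adding lytic buffer, substrate and LgBiT protein, served as the KRAS G12D read-out. Compounds, serially diluted 3-fold over 10 points from 0.3 mM DMSO stock, were on cells for 24 h; percent inhibition normalized to cells given 0.1% DMSO only.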

[2] = molecular target: T2, KRAS G12V (Homo sapiens, UniProt P01116, G12V); test: KRAS G12V HiBit assay; format: cell-based; conditions: SW620-KRAS (G12V)-HiBit-KI cells, compound treatment for 24 hours, class symbols
T2 construct: SW620-KRAS (G12V)-HiBit-KI cell (Pharmaron); host or cells: SW620-KRAS (G12V)-HiBit-KI cells (HiBiT knock-in at the endogenous KRAS locus)
In short: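 Luminescence from lytic Nano-Glo HiBiT detection with LgBiT read KRAS G12V levels after 24 h compound exposure. Dilutions were 10-point, 3-fold, from a 0.3 mM DMSO stock. Degradation activity was normalised to cells given 0.1% DMSO alone.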

[3] = numeric bounds given in place of class symbols

T2 sequence (P01116 1-188 isoform P01116-2 G12V): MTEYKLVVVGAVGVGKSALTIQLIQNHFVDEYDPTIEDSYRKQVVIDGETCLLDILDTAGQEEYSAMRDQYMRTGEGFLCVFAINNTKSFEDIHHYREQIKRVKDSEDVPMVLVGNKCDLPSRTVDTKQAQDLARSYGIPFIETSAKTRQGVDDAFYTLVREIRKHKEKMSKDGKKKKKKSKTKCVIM
T1 sequence (P01116 1-188 isoform P01116-2 G12D): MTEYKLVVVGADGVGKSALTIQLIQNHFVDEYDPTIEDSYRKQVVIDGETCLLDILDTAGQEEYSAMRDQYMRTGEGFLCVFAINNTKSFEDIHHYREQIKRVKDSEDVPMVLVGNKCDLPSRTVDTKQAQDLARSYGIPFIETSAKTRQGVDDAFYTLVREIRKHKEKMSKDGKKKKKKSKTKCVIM

Row | SMILES | DC50 ([1]; class symbols) | Dmax ([1]; class symbols) | DC50 [2] | DC50 [1, 3]
1 | C[C@H]1CN(CC(=O)N2CCC(CN3CCC(c4ccc5c(c4)n(C)c(=O)n5C4CCC(=O)NC4=O)CC3)CC2)CCCN1c1nccc(-c2noc([C@]3(C)CCCc4sc(N)c(C#N)c43)n2)n1 (stereo partly drawn) [Compound 211, (4R)-2-amino-4-(3-{2-[(2S)-4-{2-[4-({4-[1-(2,6-dioxopiperidin-3-yl)-3-methyl-2-oxo-1,3-benzodiazol-5-yl]piperidin-1-yl}methyl)piperidin-1-yl]-2-oxoethyl}-2-methyl-1,4-diazepan-1-yl]pyrimidin-4-yl}-1,2,4-oxadiazol-5-yl)-4-methyl-6,7-dihydro-5H-1-benzothiophene-3-carbonitrile] | > 300 nM | < 15% | > 100 nM | 
2 | Cn1c(=O)n(C2CCC(=O)NC2=O)c2ccc(C3CCN(CC4CCN(C(=O)CN5CCN(c6nccc(-c7noc([C@@]8(C)CCCc9sc(N)c(C#N)c98)n7)n6)CC5)CC4)CC3)cc21 (stereo partly drawn) [Compound 224] | > 300 nM |  | > 100 nM | 
3 | CCc1c(F)ccc2cc(O)cc(-c3ccc4c(N5CCC[C@@](C)(O)C5)nc(OCC56CCCN5C(COC(=O)N5CCC(CN7CCC(c8ccc9c(c8)n(C)c(=O)n9C8CCC(=O)NC8=O)CC7)CC5)CC6)nc4c3F)c12 (stereo partly drawn) [Compound 304, (7a-(((7-(8-ethyl-7-fluoro-3-hydroxynaphthalen-1-yl)-8-fluoro-4-((R)-3-hydroxy-3-methylpiperidin-1-yl)quinazolin-2-yl)oxy)methyl)hexahydro-1H-pyrrolizin-3-yl)methyl 4-((4-(1-(2,6-dioxopiperidin-3-yl)-3-methyl-2-oxo-2,3-dihydro-1H-benzo[d]imidazol-5-yl)piperidin-1-yl)methyl)piperidine-1-carboxylate] |  |  | > 100 nM | > 100 nM
4 | CCc1c(F)ccc2cc(O)cc(-c3ncc4c(N5CCC[C@@](C)(O)C5)nc(OC[C@@]56CCCN5[C@@H](COC(=O)N5CCC(Oc7cccc8c7n(C)c(=O)n8C7CCC(=O)NC7=O)CC5)CC6)nc4c3F)c12 (stereo partly drawn) [Compound 313, ((3R,7aS)-7a-(((7-(8-ethyl-7-fluoro-3-hydroxynaphthalen-1-yl)-8-fluoro-4-((R)-3-hydroxy-3-methylpiperidin-1-yl)pyrido[4,3-d]pyrimidin-2-yl)oxy)methyl)hexahydro-1H-pyrrolizin-3-yl)methyl 4-((1-(2,6-dioxopiperidin-3-yl)-3-methyl-2-oxo-2,3-dihydro-1H-benzo[d]imidazol-4-yl)oxy)piperidine-1-carboxylate] |  |  | > 100 nM | > 100 nM

The next lines start with the values.

Row | DC50 ([1]; class symbols) | Dmax ([1]; class symbols) | DC50 [2] | DC50 [1, 3] | SMILES
5 | > 300 nM |  | > 100 nM |  | Cn1c(=O)n(C2CCC(=O)NC2=O)c2cccc(C3CCN(CC4CCN(C(=O)CN5CCN(c6nccc(-c7noc([C@@]8(C)CCCc9sc(N)c(C#N)c98)n7)n6)CC5)CC4)CC3)c21 (stereo partly drawn) [Compound 222]
6 |  |  | > 100 nM | > 231 nM | Cn1c(=O)n(C2CCC(=O)NC2=O)c2cc(C3CCN(CC4CCN(C(=O)CN5CCN(c6nccc(-c7noc([C@@]8(C)CCCc9sc(N)c(C#N)c98)n7)n6)CC5)CC4)CC3)ccc21 (stereo partly drawn) [Compound 223]
7 |  |  | 10 to 100 nM | > 100 nM | CCc1c(F)ccc2cc(O)cc(-c3ncc4c(N5CCC[C@@](C)(O)C5)nc(OC[C@]56CCCN5[C@H](COC(=O)N5CCC(Oc7cccc8c7n(C)c(=O)n8C7CCC(=O)NC7=O)CC5)CC6)nc4c3F)c12 (stereo partly drawn) [Compound 306, ((3S,7aR)-7a-(((7-(8-ethyl-7-fluoro-3-hydroxynaphthalen-1-yl)-8-fluoro-4-((R)-3-hydroxy-3-methylpiperidin-1-yl)pyrido[4,3-d]pyrimidin-2-yl)oxy)methyl)hexahydro-1H-pyrrolizin-3-yl)methyl 4-((1-(2,6-dioxopiperidin-3-yl)-3-methyl-2-oxo-2,3-dihydro-1H-benzo[d]imidazol-4-yl)oxy)piperidine-1-carboxylate]
